Source: PubChem BioAssay (NCI)
Values joined by “and” are separate entries in the source; they are usually repeats but may differ in a detail not shown here. Equal entries are not always repeated.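 48-hour exposure; five concentrations; linearly interpolated endpoints. GI50: concentration for 50% inhibition of growth. TGI: concentration producing complete growth inhibition.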

Legend:
Assay in all cases: DTP human tumour cell line panel, 48 h
DU-145 prostate = system: DU-145 prostate
RPMI-8226 leukemia = system: RPMI-8226 leukemia
KM12 colon = system: KM12 colon
SK-MEL-28 melanoma = system: SK-MEL-28 melanoma
A498 renal = system: A498 renal
SF-539 CNS = system: SF-539 CNS
UACC-257 melanoma = system: UACC-257 melanoma
OVCAR-4 ovarian = system: OVCAR-4 ovarian
LOX IMVI melanoma = system: LOX IMVI melanoma
OVCAR-8 ovarian = system: OVCAR-8 ovarian

| SMILES | GI50 (DU-145 prostate) | TGI (DU-145 prostate) | GI50 (RPMI-8226 leukemia) | TGI (RPMI-8226 leukemia) | GI50 (KM12 colon) [µM] | TGI (KM12 colon) | GI50 (SK-MEL-28 melanoma) | TGI (SK-MEL-28 melanoma) | GI50 (A498 renal) | TGI (A498 renal) | GI50 (SF-539 CNS) | TGI (SF-539 CNS) | GI50 (UACC-257 melanoma) | TGI (UACC-257 melanoma) | GI50 (OVCAR-4 ovarian) | TGI (OVCAR-4 ovarian) | GI50 (LOX IMVI melanoma) | TGI (LOX IMVI melanoma) | GI50 (OVCAR-8 ovarian) | TGI (OVCAR-8 ovarian) |
| --- | --- | --- | --- | --- | --- | --- | --- | --- | --- | --- | --- | --- | --- | --- | --- | --- | --- | --- | --- | --- |
| CSc1ccc2c(c1)C(=O)c1c-2n(CCCBr)c(=O)c2cc([N+](=O)[O-])ccc12 | 3.9 µM | > 100 µM | 4.11 µM | > 100 µM | 46.1 | > 100 µM | 51.8 µM | > 100 µM | 8.32 µM | 96.4 µM | 4.59 µM | > 100 µM | > 100 µM | > 100 µM | > 100 µM | > 100 µM | 2.11 µM | 41.5 µM | 27.6 µM | > 100 µM |
| O=C(Nc1ccc(F)cc1)c1cc(S(=O)(=O)Nc2nc3ccccc3o2)c(SCc2ccccc2)cc1Cl | 19.2 µM | 35.4 µM | 17.8 µM | 56.8 µM | 17.5 | 33.9 µM | 25.8 µM | 58.2 µM | 17.2 µM | 32.5 µM | 17.1 µM | 31.2 µM | 13.5 µM | 28.4 µM | 26.9 µM | 60.9 µM | 18 µM | 34.2 µM | 17.7 µM | 36 µM |
| C=C1C(=O)OC2CC(C)C3(O)CCC(=O)C3(C)CC12 (stereo not drawn) | – | > 100 µM | – | 43.1 µM | – | 42.6 µM | – | > 100 µM | – | 66.2 µM | – | 32.7 µM | – | > 100 µM | – | 40.2 µM | – | > 100 µM | – | 70.3 µM |
| c1ccc2c(c1)c1c(c3ccccc32)CN2CCCC2C1 (stereo not drawn) | – | > 100 µM | – | > 24.2 µM | – | 15.7 µM | – | 12.9 µM | – | 12.1 µM | – | 10.7 µM | – | 20.3 µM | – | > 100 µM | – | 9.46 µM | – | 14.5 µM |
| Cc1cc(C)c(NC(=O)c2sc3nc4c(cc3c2N)CN(Cc2ccccc2)CC4)c(C)c1 | 2.62 µM | 7.65 µM | 3.18 µM | 35.1 µM | 3.26 | 43.1 µM | 6.97 µM | 40.4 µM | 1.31 µM | 7.71 µM | 2.44 µM | 7.79 µM | 6.71 µM | > 100 µM | 6.72 µM | > 100 µM | 5.01 µM | 18.1 µM | 4.72 µM | > 100 µM |
| N=C(N)c1ccc2nc(-c3cc(CC(=O)N[C@@H](CC(=O)O)C(=O)O)cc(-c4cc(S(N)(=O)=O)ccc4O)c3O)[nH]c2c1 | > 100 µM | > 100 µM | > 100 µM | > 100 µM | > 100 | > 100 µM | > 100 µM | > 100 µM | > 100 µM | > 100 µM | > 100 µM | > 100 µM | > 100 µM | > 100 µM | > 100 µM | > 100 µM | > 100 µM | > 100 µM | > 100 µM | > 100 µM |
| N#Cc1c(N/N=C/c2ccc(Cl)cc2Cl)nc(N)nc1N1CCCC1 | 10.7 µM | > 100 µM | 30.9 µM | > 100 µM | > 100 | > 100 µM | 37.6 µM | > 100 µM | 19.5 µM | 36.1 µM | 22.8 µM | > 100 µM | > 100 µM | > 100 µM | 14.8 µM | > 100 µM | 31.8 µM | > 100 µM | 27.5 µM | > 100 µM |
| CCOC(=O)/C=C(/C)Sc1cc(O)c2ccccc2c1O | 1.86 µM | 3.44 µM | 2.29 µM | 9.09 µM | 12.9 | 26.8 µM | 2.34 µM | 5.45 µM | 22.8 µM | 56.3 µM | 4.84 µM | 11.7 µM | 1.8 µM | 3.87 µM | 3.36 µM | 13.2 µM | 2.14 µM | > 23.1 µM | 2.99 µM | 12.9 µM |
| O=C(c1ccc(/C=C/c2n[nH]c3ccccc23)cc1)N1CCNCC1 | 5.76 µM and 4.15 µM | > 10 µM and 27.5 µM | 4.21 µM and 10.5 µM | > 10 µM and 47.3 µM | – | > 10 µM and 5.35 µM | 1.71 µM and 5.99 µM | 3.34 µM and 19.8 µM | 2 µM and 7.83 µM | 8.87 µM and 21.5 µM | 2.18 µM and 1.83 µM | 6.74 µM and 9.92 µM | 1.76 µM and 7.57 µM | 3.3 µM and 21 µM | > 10 µM and 3.82 µM | > 10 µM and 26 µM | 1.76 µM and 2.34 µM | 3.26 µM and 12.2 µM | > 10 µM and 14.1 µM | > 10 µM and 34.4 µM |
| [N-]=[N+]=Nc1cc(=O)n2c3c(cccc13)CCC2 | – | > 100 µM | – | > 100 µM | – | > 100 µM | – | > 100 µM | – | > 100 µM | – | > 100 µM | – | > 100 µM | – | > 100 µM | – | > 100 µM | – | > 100 µM |
| CCn1c(=O)c2c(=O)c3c4c(oc3oc2c2ccccc21)C(=O)c1ccccc1C4=O | > 100 µM | > 100 µM | 2.91 µM | > 100 µM | > 100 | > 100 µM | > 100 µM | > 100 µM | 0.461 µM | > 100 µM | 3.32 µM | > 100 µM | > 100 µM | > 100 µM | 0.376 µM | 1.5 µM | – | > 100 µM | 3.3 µM | > 100 µM |
| O[C@H](c1cc(C(F)(F)F)nc2c(C(F)(F)F)cccc12)[C@@H]1CCCCN1 | 3.41 µM | 10.6 µM | 11.2 µM | 42.8 µM | 1.63 | 3.34 µM | 2.29 µM | 5.63 µM | 8.98 µM | 22.1 µM | 6.43 µM | 15 µM | 3.84 µM | 9.11 µM | 4.45 µM | 15 µM | 1.51 µM | 2.99 µM | 5.11 µM | 14.7 µM |
